Results on 9 compounds are retold here after patent publication US20250325534A1, “MICROBIOCIDAL TETRAHYDROISOQUINOLINE DERIVATIVES” (SYNGENTA CROP PROTECTION AG, priority 2021, published 2025).

One may read the pest or weed control as the degree to which the test organism was suppressed or injured, in per cent.

The subject of test [1] is Pyrenophora teres. The test is described as follows: Pyrenophora teres / barley / leaf disc preventative (net blotch). The note with it: foliar, inoculated 2 days after application. The format is in vivo. A digest of the protocol: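 Barley cv. Hasso leaf segments on agar sprayed with formulated compound in water, then inoculated with spore suspension 2 days later. Incubated at 20° C., 65% RH, 12 h light/12 h dark; disease control versus untreated assessed 5-7 days after application.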

In test [2] the test system is Monographella nivalis. The test is described as follows: Monographella nivalis (Microdochium nivale) / liquid culture (foot rot cereals). The note with it: 96 h, photometrically 4-5 days after application, read-out: control of Monographella nivalis. In kind it is cell-based. The gist of the method:
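Microdochium nivale conidia in potato dextrose broth were added to test compound in DMSO and incubated at 24° C. Growth inhibition was measured photometrically 4-5 days after application.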

Test [3] relates to Mycosphaerella graminicola. Put plainly: Mycosphaerella graminicola (Septoria tritici) / liquid culture (Septoria blotch). The format is cell-based. The note with it: Zymoseptoria tritici, 96 h, photometrically 4-5 days after application, read-out: control of Mycosphaerella graminicola. The gist of the method:
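Conidia from cryogenic storage mixed into potato dextrose broth, added to test compound in DMSO. Plates incubated at 24° C; growth inhibition read photometrically 4-5 days after application.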

In test [4] the test system is fungi. Put plainly: Fungicidal activity of separated stereoisomers compared (test not specified). Particulars: comparison of SFC-separated isomers; test and fungus not given.
The test system of test [5] is Alternaria solani. The test is described as follows: Alternaria solani / tomato / leaf disc (early blight). The format is in vivo. The note with it: foliar, inoculated 2 days after application, vs untreated control.
Test [6] relates to Botryotinia fuckeliana. Put plainly: Botryotinia fuckeliana (Botrytis cinerea) / liquid culture (gray mould). In kind it is cell-based. The note with it: 72 h, growth inhibition photometrically 3-4 days after application, read-out: control of Botryotinia fuckeliana. The gist of the method: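 Botrytis cinerea conidia in Vogels nutrient broth added to test compound delivered in DMSO. Incubated at 24 °C; growth inhibition measured photometrically 3–4 days after application.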

The subject of test [7] is Glomerella lagenarium. The test is described as follows: Glomerella lagenarium (Colletotrichum lagenarium) / liquid culture (anthracnose). The format is cell-based. The note with it: Colletotrichum orbiculare, 72 h, photometrically 3-4 days after application, read-out: control of Glomerella lagenarium. A digest of the protocol:
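Conidia in potato dextrose broth added to test compound delivered as DMSO solution in microtiter plates; incubation at 24° C. Growth inhibition read photometrically 3-4 days after application.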

The subject of test [8] is Phaeosphaeria nodorum. The test is described as follows: Phaeosphaeria nodorum (Septoria nodorum) / wheat / leaf disc preventative (glume blotch). In kind it is in vivo. Particulars: Parastagonospora nodorum, foliar, inoculated 2 days after application. A digest of the protocol: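 Wheat leaf discs (cv. Kanzler) on agar were sprayed with formulated compound diluted in water, then inoculated with spores 2 days later. Incubation was at 20 °C and 75% relative humidity under 12 h light/12 h dark. Percent disease control versus untreated was scored 5–7 days after application.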

Test [9] has as its system Mycosphaerella arachidis. The test is described as follows: Mycosphaerella arachidis (Cercospora arachidicola) / liquid culture (early leaf spot). The format is cell-based. Particulars: 96 h, photometrically 4-5 days after application, read-out: control of Mycosphaerella arachidis. A digest of the protocol:
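Cryostored M. arachidis conidia in potato dextrose broth were added to compound applied as DMSO solution. Incubated at 24 °C; growth inhibition measured photometrically 4-5 days after application.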

For test [10], the system named is Sclerotinia sclerotiorum. The test is described as follows: Sclerotinia sclerotiorum / liquid culture (cottony rot). The format is cell-based. Particulars: 72 h, photometrically 3-4 days after application, read-out: control of Sclerotinia sclerotiorum. As to the method: Example B18: Sclerotinia sclerotiorum/Liquid Culture (Cottony Rot) Mycelia fragments of a newly grown liquid culture of the fungus are directly mixed into a nutrient broth (potato dextrose broth). After placing a DMSO solution of test compound into a microtiter plate (96-well format) the nutrient broth containing the fungal material is added. The test plates are incubated at 24° C. and the inhibition of growth is determined photometrically 3-4 days after application.

The subject of test [11] is Fusarium culmorum. Put plainly: microbe, parasite or virus in culture. In kind it is cell-based. The note with it: 72 h, read-out: control of Fusarium culmorum.
Test [12] concerns Blumeria graminis f. sp. tritici. The test is described as follows: Blumeria graminis f. sp. tritici / wheat / leaf disc preventative (powdery mildew). Particulars: foliar, inoculated 1 day after application. In kind it is in vivo. As to the method: Example B7: Blumeria graminis f. Sp. Tritici (Erysiphe graminis f. Sp. Tritici)/Wheat/Leaf Disc Preventative (Powdery Mildew on Wheat) Wheat leaf segments cv. Kanzler are placed on agar in a multiwell plate (24-well format) and sprayed with the formulated test compound diluted in water. The leaf disks are inoculated by shaking powdery mildew infected plants above the test plates 1 day after application. The inoculated leaf disks are incubated at 20° C. and 60% relative humidity under a light regime of 24 h darkness followed by 12 h light/12 h darkness in a climate chamber and the activity of a compound is assessed as percent disease control compared to untreated when an appropriate level of disease damage appears on untreated check leaf segments (6-8 days after application).

`C[C@H]1c2ccccc2[C@@](C)(c2cnn(C)c2)CN1C(=O)c1cc(-c2ccc(F)cc2F)on1` (single isomer, unassigned) [Compound P-6]: the pest or weed control at 200 ppm in [1], in test [5] and in test [8] was not below 80% in each case. The inhibition of growth at 20 ppm in test [2], in test [3], in [6], in [7] and in test [9] was not below 80% each time. Moreover, in test [4], the “fungicidal activity relative to its stereoisomer” value is listed as “more fungicidally active than the compound of peak 3”.
Consider `C[C@@H]1c2ccccc2[C@@](C)(c2cnn(C)c2)CN1C(=O)c1cc(-c2ccc(F)cc2F)on1` (single isomer, unassigned) [Compound P-9], for which the inhibition of growth at 20 ppm in test [2] and in [3] was not below 80% in each case. Also, in test [4], the “fungicidal activity relative to its stereoisomer” value is recorded as “more fungicidally active than the compound of peak 2”.
As for `Cn1cc([C@@]2(C)CN(C(=O)c3cc(-c4ccc(F)cc4F)on3)Cc3ccccc32)cn1` (single isomer, unassigned) [Compound P-48], the pest or weed control at 200 ppm in test [1], in test [5] and in [8] was not below 80% throughout. Besides, the inhibition of growth at 20 ppm in test [10], in test [2], in test [3], in [6], in test [7] and in test [9] was not below 80% in each case. In addition, the “fungicidal activity relative to its stereoisomer” value in [4] was “more fungicidally active than the (R) isomer”.
`Cc1c(C2CN(C(=O)c3cc(-c4ccc(F)cc4F)on3)Cc3ccccc32)cnn1C` (single isomer, unassigned) [Compound P-223, [5-(2,4-difluorophenyl)isoxazol-3-yl]-[4-(1,5-dimethylpyrazol-4-yl)-3,4-dihydro-1H-isoquinolin-2-yl]methanone]: the inhibition of growth at 20 ppm in test [10], in test [2], in [3], in test [11], in [6] and in test [7] was not below 80% throughout. Moreover, the inhibition of growth at 20 ppm in [9] is not below 80%.
For the compound `Cc1c(C2CN(C(=O)c3nnc(-c4ccccc4F)s3)Cc3ccccc32)cnn1C` (stereo not drawn) [Compound P-64, [4-(1,5-dimethylpyrazol-4-yl)-3,4-dihydro-1H-isoquinolin-2-yl]-[5-(2-fluorophenyl)-1,3,4-thiadiazol-2-yl]methanone], the pest or weed control at 200 ppm in [1], in test [5] and in test [8] was not below 80% throughout. In addition, the inhibition of growth at 20 ppm in test [2], in test [3], in [11], in test [6], in [7] and in test [9] was not below 80% throughout.
As for `Cc1c(C2CN(C(=O)c3nnc(-c4ccc(F)cc4F)s3)Cc3ccccc32)cnn1C` (stereo not drawn) [Compound P-65, [5-(2,4-difluorophenyl)-1,3,4-thiadiazol-2-yl]-[4-(1,5-dimethylpyrazol-4-yl)-3,4-dihydro-1H-isoquinolin-2-yl]methanone], the pest or weed control at 200 ppm in [1], in [12], in test [5] and in [8] was not below 80% in each case. In addition, the inhibition of growth at 20 ppm in test [10], in test [2], in test [3], in test [11], in test [6] and in test [7] was not below 80% in each case. In addition, the inhibition of growth at 20 ppm in test [9] was not below 80%.
On to `Cc1c(C2CN(C(=O)c3cc(-c4ccc(F)cc4F)no3)Cc3ccccc32)cnn1C` (stereo not drawn) [Compound P-108, [3-(2,4-difluorophenyl)isoxazol-5-yl]-[4-(1,5-dimethylpyrazol-4-yl)-3,4-dihydro-1H-isoquinolin-2-yl]methanone], for which the pest or weed control at 200 ppm in [1], in [12], in [5] and in test [8] was not below 80% throughout. Also, the inhibition of growth at 20 ppm in test [2], in test [3], in [11], in test [6], in test [7] and in test [9] was not below 80% each time.
Regarding `Cc1c(C2CN(C(=O)c3cc(-c4ccccc4F)on3)Cc3ccccc32)cnn1C` (stereo not drawn) [Compound P-119, [4-(1,5-dimethylpyrazol-4-yl)-3,4-dihydro-1H-isoquinolin-2-yl]-[5-(2-fluorophenyl)isoxazol-3-yl]methanone], the pest or weed control at 200 ppm in test [1], in [5] and in test [8] was not below 80% throughout. In addition, the inhibition of growth at 20 ppm in test [2], in test [3], in [11], in test [6], in test [7] and in test [9] was not below 80% in each case.
`Cn1ncc(C2CN(C(=O)c3nnc(-c4ccc(F)cc4F)s3)Cc3ccccc32)c1Cl` (stereo not drawn) [Compound P-212, [4-(5-chloro-1-methyl-pyrazol-4-yl)-3,4-dihydro-1H-isoquinolin-2-yl]-[5-(2,4-difluorophenyl)-1,3,4-thiadiazol-2-yl]methanone]: the inhibition of growth at 20 ppm in test [10], in test [2], in test [3], in test [11], in test [6] and in [7] was not below 80% in each case. Besides, the inhibition of growth at 20 ppm in [9] is not below 80%.
